Key:
KCB cells = conditions: 12-14 hours exposure
Method: The inventive cells were cryopreserved in a solution consisting of 10% DMSO and 10% FBS (fetal-bovine-serum) in MEM (minimum-essential-medium) at −80° C. The cells were thawed, washed with MEM and transferred to a 96 micro-well plate. In order to avoid evaporation of medium and consequent bias in MN frequency, the outer wells were left empty and the micro-well plate was sealed with duct tape. The inner wells were filled with cells in medium. The medium employed was composed of 86% MEM, 10% FBS, 1% non-essential-amino acids, 1% streptomycin (5 mg/ml in PBS—phosphate-buffered saline), 1% penicillin (3.125 mg/ml in PBS) and 1% amphotericin (250 μg/ml in deionized water). The cells were cultivated at 26° C. until they formed a moderately dense monolayer. The time until optimal monolayer density was achieved varied from two to five days.
Two untreated (i.e. not exposed to genotoxic compounds) columns served as internal (negative) controls of each plate.
It is possible, but not absolutely necessary, to replace the exposure medium by a recovery medium before the scoring. The scoring of micronuclei shall take place earliest 2 hours and latest 12 hours after the end of the exposure period.
In the basic test, a minimum of two pictures per well, corresponding to at least 24 pictures per concentration or control, were taken under a fluorescence microscope with an objective magnification of 40×. Normal cell nuclei, MN and fragmented nuclei in each picture were counted visually with aid of the “Cell Counter” plugin from the public domain image processing software “ImageJ”. Finally, the frequencies of MN per concentration were calculated.

[1] = system: carp (Cyprinus carpio) erythrocytes; conditions: fish injected with 0.4 mg colchicine/kg body weight; background 2%; cited from earlier work
human skin fibroblasts = conditions: colchicine 20 ng/mL (around 0.05 μM), 72 hours; background 0.2-0.9%; cited from earlier work
human lymphocytes = conditions: colchicine 0.06 μM, 24 hours; controls 1%; cited from earlier work

| SMILES | concentrations at which a cytotoxic threshold may have been achieved (MN frequency diminishing or stabilizing) (KCB cells) | MN frequency [1] | maximal MN frequency (KCB cells; colchicine at 0.375 μM) [%] | maximal frequency of fragmented nuclei (KCB cells; colchicine at 0.5 μM) [%] | MN frequency (human skin fibroblasts) | MN frequency (human lymphocytes) |
| --- | --- | --- | --- | --- | --- | --- |
| O=[N+]([O-])c1cc[n+]([O-])c2ccccc12 [4NQO, 4-Nitroquinoline 1-oxide] | ≥ 0.6 µM | – | – | – | – | – |
| COc1cc2c(c(OC)c1OC)-c1ccc(OC)c(=O)cc1[C@@H](NC(C)=O)CC2 [colchicine] | higher than 0.188 μM | around 10% | 1.77 | 6.85 | up to 4.7% | around 15.2% |

Reference: patent publication US20190113503A1 (priority 2016, published 2019)
